Test results published in patent US20140364431A1, “Quinoline and cinnoline derivatives and their applications” (Shenyang Pharmaceutical University, priority 2011, published 2014).
≈ marks a conversion by molar mass, not a printed value.

What was measured:
[1] = test system: H460 (human lung cancer cell); test: In vitro anti-tumor cellular activity (MTT), H460; type: cell-based; settings: MTT, 72 hours, H460; for IC50: Homo sapiens, NCI-H460, read-out: H460 IC50
[2] = test system: U87MG (Human malignant glioblastoma cells); test: In vitro anti-tumor cellular activity (MTT), U87MG; type: cell-based; settings: MTT, 72 hours, U87MG; for IC50: Homo sapiens, U-87 MG, read-out: U87MG IC50
[3] = test system: HT-29 (colon cancer cell); test: In vitro anti-tumor cellular activity (MTT), HT-29; type: cell-based, human; settings: MTT, 72 hours, HT-29; for IC50: Homo sapiens, read-out: HT-29 IC50
[4] = test system: MKN-45 (human gastric carcinoma cell); test: In vitro anti-tumor cellular activity (MTT), MKN-45; type: cell-based; settings: MTT, 72 hours, MKN-45; for IC50: Homo sapiens, read-out: MKN-45 IC50
[5] = test system: SMMC-7721 (hepatoma cell); test: In vitro anti-tumor cellular activity (MTT), SMMC-7721; type: cell-based, human; settings: MTT, 72 hours, SMMC-7721; for IC50: Homo sapiens, read-out: SMMC-7721 IC50
[6] = biological target: T1, c-Met (His-tagged recombinant human Met (Amino acids 974-ends)) (Homo sapiens, UniProt P08581); test: c-Met kinase assay (ELISA); type: biochemical; settings: 50 pM c-Met, 5 μM ATP, 20 min
T1 construct: His-tagged recombinant human Met (Amino acids 974-ends); His; host or cells: baculovirus expression
T1 sequence (P08581 974-1390 limits assumed): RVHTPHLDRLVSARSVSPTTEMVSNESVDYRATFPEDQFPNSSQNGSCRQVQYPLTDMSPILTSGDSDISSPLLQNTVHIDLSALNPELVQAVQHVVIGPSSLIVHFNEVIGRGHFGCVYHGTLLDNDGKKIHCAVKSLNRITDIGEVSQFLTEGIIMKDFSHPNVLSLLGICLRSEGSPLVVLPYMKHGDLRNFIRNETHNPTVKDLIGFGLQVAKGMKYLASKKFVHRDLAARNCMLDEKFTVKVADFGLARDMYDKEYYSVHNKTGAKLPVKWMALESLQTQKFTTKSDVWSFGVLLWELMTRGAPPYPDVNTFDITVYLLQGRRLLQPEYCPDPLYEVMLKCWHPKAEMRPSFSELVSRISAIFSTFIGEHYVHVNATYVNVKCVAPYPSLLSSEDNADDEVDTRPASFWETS
Description: c-Met kinase activity was measured with an ELISA reader.
The reaction mixture was removed by washing with 0.2 μg/mL conjugated horseradish peroxidase (HRP) monoclonal antibody specific for phosphotyrosine (PY20) detecting phosphorylation of the substrate polymer. 1M phosphoric acid was added to terminate the color, the chromogenic substrate (TMB) was tested by spectrophotometry at 450 nm.

IC50 [1] [µg/mL]	IC50 [2] [µg/mL]	IC50 [3] [µg/mL]	IC50 [4] [µg/mL]	IC50 [5] [µg/mL]	IC50 [6] [nM]	Compound	other results
0.8 (≈ 1.01 µM)	0.7 (≈ 0.886 µM)	0.8 (≈ 1.01 µM)	0.6 (≈ 0.759 µM)	1.4 (≈ 1.77 µM)	1140	COc1cc2c(Oc3ccc(NC(=O)c4nn(-c5cc(C(F)(F)F)ccc5Cl)c5ccccc5c4=O)cc3F)ccnc2cc1OCCCN1CCC(C)CC1 [Example 21, N-(3-fluoro-4-((6-methoxy-7-(3-(4-methylpiperidin-1-yl)propoxy)quinolin-4-yl)oxy)phenyl)-1-(2-chloro-5-(trifluoromethyl)phenyl)-4-oxo-1,4-dihydrocinnoline-3-carboxamide]	–
1.1 (≈ 1.42 µM)	1.3 (≈ 1.67 µM)	0.7 (≈ 0.902 µM)	1.6 (≈ 2.06 µM)	0.5 (≈ 0.644 µM)	1930	COc1cc2c(Oc3ccc(NC(=O)c4nn(-c5cc(C(F)(F)F)ccc5Cl)c5ccccc5c4=O)cc3F)ccnc2cc1OCCCN1CCCCC1 [Example 20, N-(3-fluoro-4-((6-methoxy-7-(3-(piperidin-1-yl)propoxy)quinolin-4-yl)oxy)phenyl)-1-(2-chloro-5-(trifluoromethyl)phenyl)-4-oxo-1,4-dihydrocinnoline-3-carboxamide]	–
–	–	–	–	–	–	N-(3-fluoro-4-((6-methoxy-7-(3-(pyrrolidin-1-yl)propoxy)quinolin-4-yl)oxy)phenyl)-1-(2-c hlorophenyl)-4-oxo-1,4-dihydrocinnoline-3-carboxamide dihydrochloride [Example 16]	H460 IC50 [1]: 0.69 µg/mL; U87MG IC50 [2]: 0.2 µg/mL; HT-29 IC50 [3]: 0.57 µg/mL; MKN-45 IC50 [4]: 1.1 µg/mL; SMMC-7721 IC50 [5]: 0.45 µg/mL; c-Met IC50 [6]: 0.9 µg/mL
–	–	–	–	–	2070	COc1cc2c(Oc3ccc(NC(=O)c4nn(-c5ccccc5F)c5ccccc5c4=O)cc3F)ccnc2cc1OCCCN1CCCC1 [Example 41, N-(3-fluoro-4-((6-methoxy-7-(3-(pyrrolidin-1-yl)propoxy)quinolin-4-yl)oxy)phenyl)-1-(2-fluorophenyl)-4-oxo-1,4-dihydrocinnoline-3-carboxamide]	–
2.7 (≈ 3.82 µM)	2.1 (≈ 2.97 µM)	1.5 (≈ 2.12 µM)	–	1.6 (≈ 2.26 µM)	1410	COc1cc2c(Oc3ccc(NC(=O)c4nn(-c5ccc(F)cc5)c5ccccc5c4=O)cc3F)ccnc2cc1OCCCN1CCN(C)CC1 [Example 42, N-(3-fluoro-4-((6-methoxy-7-(3-(4-methylpiperazin-1-yl)propoxy)quinolin-4-yl)oxy)phenyl)-1-(4-fluorophenyl)-4-oxo-1,4-dihydrocinnoline-3-carboxamide]	–
1.8 (≈ 2.6 µM)	2.7 (≈ 3.9 µM)	3.2 (≈ 4.62 µM)	3.3 (≈ 4.76 µM)	1.9 (≈ 2.74 µM)	–	COc1cc2c(Oc3ccc(NC(=O)c4nn(-c5cccc(F)c5)c5ccccc5c4=O)cc3F)cnnc2cc1OCCCN1CCCCC1 [Example 64, N-(3-fluoro-4-((6-methoxy-7-(3-(piperidin-1-yl)propoxy)cinnolin-4-yl)oxy)phenyl)-1-(3-fluorophenyl)-4-oxo-1,4-dihydrocinnoline-3-carboxamide]	–
–	–	–	–	–	409	COc1cc2c(Oc3ccc(NC(=O)c4cn(-c5ccc(F)c(F)c5)c5ccccc5c4=O)cc3F)ccnc2cc1OCCCN1CCCCC1 [Example 60, N-(3-fluoro-4-((6-methoxy-7-(3-(piperidin-1-yl)propoxy)quinolin-4-yl)oxy)phenyl)-1-(3,4-difluorophenyl)-4-oxo-1,4-dihydroquinoline-3-carboxamide]	–
–	–	–	–	–	–	N-(3-fluoro-4-((6-methoxy-7-(3-(4-methylpiperazin-1-yl)propoxy)quinolin-4-yl)oxy)phenyl)-1-(4-bromophenyl)-4-oxo-1,4-dihydrocinnoline-3-carboxamide [Example 40]	c-Met IC50 [6]: 0.9 µg/mL
–	–	–	–	–	–	N-(3-fluoro-4-((6-methoxy-7-(3-(4-methylpiperidin-1-yl)propoxy)quinolin-4-yl)oxy)phenyl)-1-(2-fluorophenyl)-4-oxo-1,4-dihydrocinnoline-3-carboxamide [Example 14]	H460 IC50 [1]: 0.47 µg/mL; U87MG IC50 [2]: 0.15 µg/mL; HT-29 IC50 [3]: 0.31 µg/mL; MKN-45 IC50 [4]: 0.45 µg/mL; SMMC-7721 IC50 [5]: 1.1 µg/mL
